Assay [1] concerns the target human CTPS1 (Homo sapiens (Human), UniProt P17812). In words: Human CTPS1 enzyme inhibition, ADP-Glo Max assay. It counts as biochemical. The note with it: Human CTPS1 Enzyme Inhibition data. Here is the method:
The enzyme inhibitory activities of compounds CTPS1-IA and CTPS1-IB against CTPS1 were determined using the ADP-Glo™ Max assay (Promega, UK).
Assays for human CTPS1 were performed in 1× assay buffer containing 50 mM Tris, 10 mM MgCl2, 0.01% Tween-20, pH to 8.0 accordingly. Finally, immediately before use, L-cysteine was added to the 1× assay buffer to a final concentration of 2 mM. All reagents are from Sigma-Aldrich unless specified otherwise. Human full length active C-terminal FLAG-His8-tag CTPS1 (UniProtKB—P17812, CTPS[1-591]-[…], SEQ ID NO: 1) was obtained from Proteros biostructures GmbH.
3× human CTPS1 protein was prepared in 1× assay buffer to the final working protein concentration required for the reaction. […] The enzymatic reaction was then initiated by addition of a 2 uL per well volume of a pre-mixed substrate mix (UltraPure ATP from ADP-Glo™ Max kit (0.31 mM), GTP (0.034 mM), UTP (0.48 mM) and L-glutamine (0.186 mM)) and the mixture was incubated for an appropriate amount of time within the determined linear phase of the reaction at 25° C. under sealed plate conditions with constant agitation at 500 revolutions per minute (rpm). ADP-Glo™ Max reagent was added for 60 minutes (6 μL per well) and subsequently ADP-Go™ Max development reagent was added for 60 minutes (12 uL per well) prior to signal detection in a microplate reader (EnVision® Multilabel Reader, Perkin Elmer). […]

The subject of assay [2] is human CTPS1 versus CTPS2. In words: Human CTPS1 versus CTPS2 selectivity assessment by RapidFire/MS. Format: biochemical. The conditions noted are these: fold selectivity between CTPS1 and CTPS2. As for the experimental part: The enzyme inhibitory activities against each target isoform of interest were determined for compounds using an optimised RapidFire high-throughput mass spectrometry (RF/MS) assay format. RF/MS assays for both human CTPS1 and CTPS2 were performed in assay buffer consisting of 50 mM HEPES (Merck), 20 mM MgCl2, 5 mM KCl, 1 mM DTT, 0.01% Tween-20, pH to 8.0 accordingly. Human full-length active C-terminal FLAG-His-tag CTPS1 (UniProtKB—P17812, CTPS[1-591]-[…], SEQ ID NO: 1) was obtained from Proteros biostructures GmbH. Human full length active C-terminal FLAG-His-Avi tagged CTPS2 (UniProtKB—Q9NRF8, CTPS2 [1-586]-[…], SEQ ID NO: 2) was obtained from Harker Bio.
Human CTPS (1 or 2) protein was prepared in 1× assay buffer to the final working protein concentration required for the reaction. A 2 uL volume per well of 2×CTPS (1 or 2) protein was mixed with 40 nL of compound using acoustic (ECHO) delivery and incubated for 10 minutes at 25° C. […] Each mixture was incubated for an appropriate amount of time per isoform within the determined linear phase of the reaction at 25° C. […]
In all cases, the enzyme converts UTP to CTP. […] Readout for data analysis was calculated as the ratio between the peak area of the product CTP and the internal standard ^13C9-^15N3-CTP. […]
Fold selectivity between CTPS1 and CTPS2 was subsequently calculated according to the following equation: […]

For assay [3], the system named is human mantle cell lymphoma cell lines. In words: RNA sequencing after exposure to CTPS1 inhibitor. It counts as cell-based. The note with it: 24 hour exposure at IC50 versus control. As for the experimental part: RNA was obtained from cancer cell lines treated with CTPS1-IA at IC50 or control for 24 hours. Libraries were prepared from 10 ng total RNA. mRNA poly(A) tails were tagged with universal adapters, sample-specific barcodes and unique molecular identifiers using template switching reverse transcriptase. Barcoded cDNAs from multiple samples were then pooled, amplified and tagmented using a transposon-fragmentation approach which enriches for 3′ ends of cDNA. A library of 350-800 bp length was run on an Illumina NovaSeq 6000 using NovaSeq 6000 SP Reagent Kit 100 cycles (ref #20027464). Raw fastq pairs used for analysis matched the following criteria: the 16 bases of the first read correspond to 6 bases for a sample-specific barcode and 10 bases for a unique molecular identifier. The second read (58 bases) corresponds to the captured poly(A) RNAs sequence. Demultiplexing of these fastq pairs was performed to generate one single-end fastq for each of the 96 samples. fastq files were then aligned with bwa to reference mRNA sequences and the mitochondrial genomic sequence (UCSC). DGE profiles were generated by parsing the alignment files (.bam) and counting for each sample the number of unique molecular identifiers associated with each RefSeq gene. Reads aligned on multiple genes, containing more than one mismatch with the reference sequence, or containing a polyA pattern were discarded. […]

Assay [4] deals with human mantle cell lymphoma cell line. In words: Western blot after exposure to CTPS1 inhibitor. It counts as cell-based. The conditions noted are these: 24 hour exposure versus control; GAPDH loading control. Here is the method: Cells were incubated on ice for 40 minutes with lysis buffer then centrifuged at 11000 rpm for 30′. Total protein extracts were collected from supernatants and protein concentrations determined using a colorimetric assay. 30 μg of proteins were separated by SDS-PAGE using precast gels and transferred to membranes using the Trans-Blot Turbo system. Membranes were blocked for 1 hour in a 5% dry milk, TBS-Tween20 solution and incubated with primary antibodies overnight at 4° C. Membranes were incubated for at least 1 hour with secondary antibodies, either goat anti-mouse or goat anti-rabbit conjugated with peroxidase. Chemiluminescence was determined using the Clarity Western ECL Substrate on the Fusion FX imaging system.

Structures are written as SMILES.

Sequence of human CTPS1 (P17812 whole entry): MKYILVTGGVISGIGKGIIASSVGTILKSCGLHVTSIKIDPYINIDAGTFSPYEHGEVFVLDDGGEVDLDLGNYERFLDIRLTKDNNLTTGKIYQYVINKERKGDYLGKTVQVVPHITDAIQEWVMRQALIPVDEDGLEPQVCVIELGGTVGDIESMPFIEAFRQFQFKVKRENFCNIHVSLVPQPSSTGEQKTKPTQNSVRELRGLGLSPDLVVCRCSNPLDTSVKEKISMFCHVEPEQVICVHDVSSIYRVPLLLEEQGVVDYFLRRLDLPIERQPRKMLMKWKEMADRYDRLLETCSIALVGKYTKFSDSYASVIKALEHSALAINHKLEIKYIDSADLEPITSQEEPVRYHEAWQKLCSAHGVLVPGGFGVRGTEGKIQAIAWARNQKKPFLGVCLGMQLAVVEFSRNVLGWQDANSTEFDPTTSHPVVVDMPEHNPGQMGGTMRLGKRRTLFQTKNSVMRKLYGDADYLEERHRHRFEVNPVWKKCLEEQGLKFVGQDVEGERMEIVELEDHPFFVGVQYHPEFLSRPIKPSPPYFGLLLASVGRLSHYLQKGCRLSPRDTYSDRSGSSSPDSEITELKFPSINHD

In turn, `CCOc1cncc(-c2ccc(NC(=O)C3(c4ccnc(NS(=O)(=O)C5CC5)n4)CCOCC3)nc2)n1` [CTPS1-IA, 4-(2-(cyclopropanesulfonamido)pyrimidin-4-yl)-N-(5-(6-ethoxypyrazin-2-yl)pyridin-2-yl)tetrahydro-2H-pyran-4-carboxamide] came in with an IC50 in assay [1] of no more than 0.1 µM. For the same molecule, the Selectivity in assay [2] was greater than 60 fold. Besides, in assay [3], the BCL2 transcripts entry is reported as “increase” and the MCL1 transcripts result is given as “decrease”. In assay [4], the BCL2 protein result was “increase” and the MCL1 protein entry is reported as “decrease”.
Turning to `CCOc1cncc(-c2ccc(NC(=O)C3(c4ccnc(NS(=O)(=O)CC)n4)CCOCC3)nc2)n1` [CTPS1-IB, N-(5-(6-ethoxypyrazin-2-yl)pyridin-2-yl)-4-(2-(ethylsulfonamido)pyrimidin-4-yl)tetrahydro-2H-pyran-4-carboxamide], in assay [1], the IC50 is no more than 0.1 µM. For the same molecule, the Selectivity in assay [2] is recorded as greater than 60 fold.

The values are drawn from patent US20250177394A1, “COMBINATIONS OF CTPS1 AND BCL2 INHIBITORS FOR CANCER” (Step Pharma S.A.S., priority 2022, published 2025).
